Assay results as given in patent publication US8217066B2, “Compounds as lysophosphatidic acid receptor antagonists” (Amira Pharmaceuticals, Inc., priority 2009, dated 2012).

Molecular target: T1, human LPA1 (Homo sapiens, UniProt Q92633)
T1 construct: the full-length cDNA for human LPA1 was obtained by PCR of the reverse transcription reaction; expressed in transfected cells
Test: LPA1 calcium flux assay (HLPA1 Ca Flux)
Assay type: cell-based
Conditions: CHO cells stably expressing human LPA1, stimulated with 10 nM LPA
Description: A 1.1 kb cDNA encoding the human LPA1 receptor was cloned from human lung. Human lung RNA (Clontech Laboratories, Inc. USA) was reverse transcribed using the RETROscript kit (Ambion, Inc.) and the full-length cDNA for human LPA1 was obtained by PCR of the reverse transcription reaction. The nucleotide sequence of the cloned human LPA1 was determined by sequencing and confirmed to be identical to the published human LPA1 sequence (An et al. Biochem. Biophys. Res. Commun. 231:619 (1997). The cDNA was cloned into the pcDNA5/FRT expression plasmid and transfected in CHO cells using lipofectamine 2000 (Invitrogen Corp., USA). Clones stably expressing human LPA1 were selected using hygromycin and identified as cells that show Ca-influx in response to LPA.
Human LPA1 or LPA3 expressing CHO cells are seeded at 20,000-45,000 cells per well in a 96-well poly-D-lysine coated plate one or two days before the assay. Prior to the assay, the cells are washed once with PBS and then cultured in serum-free media overnight. On the day of the assay, a calcium indicator dye (Calcium 4, Molecular Devices) in assay buffer (HBSS with Ca^2+ and Mg^2+ and containing 20 mM Hepes and 0.3% fatty-acid free human serum albumin) is added to each well and incubation continued for 1 hour at 37° C. […] of test compounds in 2.5% DMSO are added to the cells and incubation continued at room temperature for 30 minutes. Cells are the stimulated by the addition of 10 nM LPA and intracellular Ca^2+ measured using the Flexstation 3 (Molecular Devices). IC50s are determined using Graphpad prism analysis of drug titration curves.

T1 sequence (Q92633 whole entry): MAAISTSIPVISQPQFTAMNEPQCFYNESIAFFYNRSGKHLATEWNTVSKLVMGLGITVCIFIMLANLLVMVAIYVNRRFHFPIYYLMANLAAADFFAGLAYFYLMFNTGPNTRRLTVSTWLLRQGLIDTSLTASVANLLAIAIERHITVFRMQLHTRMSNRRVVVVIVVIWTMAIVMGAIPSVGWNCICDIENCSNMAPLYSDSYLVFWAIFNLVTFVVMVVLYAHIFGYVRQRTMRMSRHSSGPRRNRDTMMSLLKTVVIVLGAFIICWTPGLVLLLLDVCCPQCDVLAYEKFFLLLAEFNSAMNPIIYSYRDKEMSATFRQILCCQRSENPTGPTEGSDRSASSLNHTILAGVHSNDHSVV

Row | SMILES | IC50 [nM]
1 | Cc1noc(-c2ccc(-c3ccc(C4(C(=O)O)CC4)cc3)cc2)c1CCC(O)Cc1ccccc1 (stereo not drawn) [Compound 23, 1-{4′-[4-(3-Hydroxy-4-phenyl-butyl)-3-methyl-isoxazol-5-yl]-biphenyl-4-yl}-cyclopropanecarboxylic acid] | 300 to 1000
2 | Cc1noc(-c2ccc(-c3ccc(C4(C(=O)O)CC4)cc3)cc2)c1COCCc1ccccc1 [Compound 8, 1-[4′-(3-Methyl-4-phenethyloxymethyl-isoxazol-5-yl)-biphenyl-4-yl]-cyclopropanecarboxylic acid] | < 300
3 | Cc1noc(-c2ccc(-c3ccc(C4(C(=O)O)CC4)cc3)cc2)c1CNCCc1ccccc1 [Compound 5, 1-{4′-[3-Methyl-4-(phenethylamino-methyl)-isoxazol-5-yl]-biphenyl-4-yl}-cyclopropanecarboxylic acid] | 300 to 1000
4 | Cc1noc(-c2ccc(-c3ccc(C4(C(=O)O)CC4)cc3)cc2)c1CSCCc1ccccc1 [Compound 10, 1-[4′-(3-Methyl-4-phenethylsulfanylmethyl-isoxazol-5-yl)-biphenyl-4-yl]-cyclopropanecarboxylic acid] | < 300
5 | Cc1noc(-c2ccc(-c3ccc(C4(C(=O)O)CC4)cc3)cc2)c1CCCCc1ccccc1 [Compound 6, 1-{4′-[3-Methyl-4-(4-phenyl-butyl)-isoxazol-5-yl]-biphenyl-4-yl}-cyclopropanecarboxylic acid] | < 300
6 | Cc1noc(-c2ccc(-c3ccc(C4(C(=O)O)CC4)cc3)cc2)c1CCOCc1cccc(Cl)c1 [Compound 16, 1-(4′-{4-[2-(3-Chloro-benzyloxy)-ethyl]-3-methyl-isoxazol-5-yl}-biphenyl-4-yl)-cyclopropanecarboxylic acid] | < 300
7 | Cc1noc(-c2ccc(-c3ccc(C4(C(=O)O)CC4)cc3)cc2)c1CC(C)(O)CCc1ccccc1 (stereo not drawn) [Compound 25, 1-{4′-[4-(2-Hydroxy-2-methyl-4-phenyl-butyl)-3-methyl-isoxazol-5-yl]-biphenyl-4-yl}-cyclopropanecarboxylic acid] | < 300
8 | Cc1noc(-c2ccc(-c3ccc(C4(C(=O)O)CC4)cc3)cc2)c1COCC(C)(O)c1ccccc1 (stereo not drawn) [Compound 19, 1-{4′-[4-(2-hydroxy-2-phenyl-propoxymethyl)-3-methyl-isoxazol-5-yl]-biphenyl-4-yl}-cyclopropanecarboxylic acid] | 1000 to 50000
9 | Cc1noc(-c2ccc(-c3ccc(C4(C(=O)O)CC4)cc3)cc2)c1COC(C)Cc1ccccc1 (stereo not drawn) [Compound 9, 1-{4′-[3-Methyl-4-(1-methyl-2-phenyl-ethoxymethyl)-isoxazol-5-yl]-biphenyl-4-yl}-cyclopropanecarboxylic acid] | < 300
10 | Cc1noc(-c2ccc(-c3ccc(C4(C(=O)O)CC4)cc3)cc2)c1CNCC(C)c1ccccc1 (stereo not drawn) [Compound 13, 1-(4′-{3-Methyl-4-[(2-phenyl-propylamino)-methyl]-isoxazol-5-yl}-biphenyl-4-yl)-cyclopropanecarboxylic acid] | < 300
11 | Cc1noc(-c2ccc(-c3ccc(C4(C(=O)O)CC4)cc3)cc2)c1CNCC(O)c1ccccc1 (stereo not drawn) [Compound 12, 1-(4′-{4-[(2-Hydroxy-2-phenyl-ethylamino)-methyl]-3-methyl-isoxazol-5-yl}-biphenyl-4-yl)-cyclopropanecarboxylic acid] | 1000 to 50000
12 | Cc1noc(-c2ccc(-c3ccc(C4(C(=O)O)CC4)cc3)cc2)c1CCOCc1ccc(Cl)cc1 [Compound 17, 1-(4′-{4-[2-(4-Chloro-benzyloxy)-ethyl]-3-methyl-isoxazol-5-yl}-biphenyl-4-yl)-cyclopropanecarboxylic acid] | < 300

Other lines, results leading:

Row | IC50 [nM] | SMILES
13 | < 300 | COc1ccc(CCC(C)Nc2c(C)noc2-c2ccc(-c3ccc(C4(C(=O)O)CC4)cc3)cc2)cc1 (stereo not drawn) [Compound 50, 1-(4′-{4-[3-(4-Methoxy-phenyl)-1-methyl-propylamino]-3-methyl-isoxazol-5-yl}-biphenyl-4-yl)-cyclopropanecarboxylic acid]
14 | < 300 | Cc1noc(-c2ccc(-c3ccc(C4(C(=O)O)CC4)cc3)cc2)c1NC(C)CCc1c(F)cccc1Cl (stereo not drawn) [Compound 55, 1-(4′-{4-[3-(2-Chloro-6-fluoro-phenyl)-1-methyl-propylamino]-3-methyl-isoxazol-5-yl}-biphenyl-4-yl)-cyclopropanecarboxylic acid]
15 | < 300 | Cc1noc(-c2ccc(-c3ccc(C4(C(=O)O)CC4)cc3)cc2)c1C(O)C(C)(C)CCc1ccccc1 (stereo not drawn) [Compound 45, 1-{4′-[4-(1-Hydroxy-2,2-dimethyl-4-phenyl-butyl)-3-methyl-isoxazol-5-yl]-biphenyl-4-yl}-cyclopropanecarboxylic acid]
16 | < 300 | Cc1noc(-c2ccc(-c3ccc(C4(C(=O)NS(C)(=O)=O)CC4)cc3)cc2)c1CC(F)(F)CCc1ccccc1 [Compound 75, N-(1-{4′-[4-(2,2-Difluoro-4-phenyl-butyl)-3-methyl-isoxazol-5-yl]-biphenyl-4-yl}-cyclopropanecarbonyl)-methanesulfonamide]
17 | < 300 | Cc1noc(-c2ccc(-c3ccc(C4(C(=O)O)CC4)cc3)cc2)c1C(O)CCCc1ccccc1C(F)(F)F (stereo not drawn) [Compound 40, 1-(4′-{4-[1-Hydroxy-4-(2-trifluoromethyl-phenyl)-butyl]-3-methyl-isoxazol-5-yl}-biphenyl-4-yl)-cyclopropanecarboxylic acid]
18 | < 300 | Cc1cccc(CCCC(O)c2c(C)noc2-c2ccc(-c3ccc(C4(C(=O)O)CC4)cc3)cc2)c1 (stereo not drawn) [Compound 37, 1-{4′-[4-(1-Hydroxy-4-m-tolyl-butyl)-3-methyl-isoxazol-5-yl]-biphenyl-4-yl}-cyclopropanecarboxylic acid]
19 | < 300 | Cc1noc(-c2ccc(-c3ccc(C4(C(=O)NS(C)(=O)=O)CC4)cc3)cc2)c1CSCCc1ccccc1 [Compound 71, N-[1-[4′-(3-Methyl-4-phenethylsulfanylmethyl-isoxazol-5-yl)-biphenyl-4-yl]-cyclopropanecarbonyl]-methanesulfonamide]
20 | < 300 | Cc1noc(-c2ccc(-c3ccc(C4(C(=O)O)CC4)cc3)cc2)c1C(O)CCCc1cccc(C(F)(F)F)c1 (stereo not drawn) [Compound 36, 1-(4′-{4-[1-Hydroxy-4-(3-trifluoromethyl-phenyl)-butyl]-3-methyl-isoxazol-5-yl}-biphenyl-4-yl)-cyclopropanecarboxylic acid]
21 | < 300 | Cc1noc(-c2ccc(-c3ccc(C4(C(=O)O)CC4)cc3)cc2)c1C(O)COCc1cccc(C(F)(F)F)c1 (stereo not drawn) [Compound 58, 1-(4′-{4-[1-Hydroxy-2-(3-trifluoromethyl-benzyloxy)-ethyl]-3-methyl-isoxazol-5-yl}-biphenyl-4-yl)-cyclopropanecarboxylic acid]
22 | < 300 | Cc1noc(-c2ccc(-c3ccc(C4(C(=O)NS(=O)(=O)C5CC5)CC4)cc3)cc2)c1C(O)CCCc1ccccc1 (stereo not drawn) [Compound 79]
23 | < 300 | Cc1noc(-c2ccc(-c3ccc(C4(C(=O)O)CC4)cc3)cc2)c1C(O)C(F)(F)CCc1ccc(C(F)(F)F)cc1 (stereo not drawn) [Compound 64, 1-(4′-{4-[2,2-Difluoro-1-hydroxy-4-(4-trifluoromethyl-phenyl)-butyl]-3-methyl-isoxazol-5-yl}-biphenyl-4-yl)-cyclopropanecarboxylic acid]
24 | < 300 | Cc1noc(-c2ccc(-c3ccc(C4(C(=O)O)CC4)cc3)cc2)c1C(O)CCc1ccccc1 (stereo not drawn) [Compound 34, 1-{4′-[4-(1-Hydroxy-3-phenyl-propyl)-3-methyl-isoxazol-5-yl]-biphenyl-4-yl}-cyclopropanecarboxylic acid]
